In patent publication US6914045B2, “Glycopeptide antibiotics” (Wyeth Holdings Corporation, priority 2001, dated 2005):
In brackets after ≈: the same amount, converted by molar mass.

Experiments:
Enterococcus sp. = assay: in vitro antibacterial evaluation, MIC by broth dilution; format: cell-based; settings: broth dilution, 18 hours at 35° C.; for MIC Enterococcus faecalis (ATCC 29212): strain ATCC 29212; for MIC Enterococcus faecalis (GC 2242): strain GC 2242; for MIC Enterococcus faecium (GC 2243): strain GC 2243; for MIC Enterococcus faecalis (GC 2691): strain GC 2691; for MIC Enterococcus faecalis (GC 3059): strain GC 3059; for MIC Enterococcus faecalis (GC 4552): strain GC 4552; for MIC Enterococcus faecalis (GC 4553): strain GC 4553; for MIC Enterococcus faecalis (GC 4554): strain GC 4554; for MIC Enterococcus faecium (GC 4556): strain GC 4556; for MIC Enterococcus faecium (GC 4557): strain GC 4557; for MIC Enterococcus avium (GC 4558): strain GC 4558; for MIC Enterococcus faecalis (GC 6189): strain GC 6189
Method in brief: (§1)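 Inoculum 5×10^5 CFU/mL; concentrations 64 to 0.06 μg/mL; MIC defined as lowest inhibitory level. Conducted by broth dilution under NCCLS guidelines.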

Escherichia coli = assay: as above; format: cell-based
Method in brief: as §1

Staphylococcus sp. = assay: as above; format: cell-based; settings: broth dilution, 18 hours at 35° C.; for MIC Staphylococcus aureus (GC 1131): strain GC 1131
Method in brief: as §1

Streptococcus sp. = assay: as above; format: cell-based; settings: broth dilution, 18 hours at 35° C.; for MIC Streptococcus pneumoniae (ATCC 6301): strain ATCC 6301; for MIC Streptococcus pneumoniae (GC 1894): strain GC 1894; for MIC Streptococcus pyogenes (GC 4563): strain GC 4563; for MIC Streptococcus agalactiae (GC 4564): strain GC 4564; for MIC Streptococcus pneumoniae (GC 4565): strain GC 4565
Method in brief: as §1

[1] = tested on: Staphylococcus aureus-SMITH (GC 4543); assay: acute lethal infection in mice; format: in vivo; settings: acute lethal infection, female CD-1 mice, intraperitoneal challenge, intravenous 30 min. after infection, 7 day survival
Method in brief: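 Female CD-1 mice (20±2 g) got an intraperitoneal bacterial challenge lethal to untreated controls within 24–48 hr. Compound was dosed intravenously 30 min after infection, five mice per dose. ED50 was calculated from 7-day survival pooled across 3 tests.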

Cc1ccc(Oc2ccc(C3OCC4OC(OC5C(CO)OC(Oc6ccc(CC7NC(=O)C(C(C)c8ccccc8)NC(=O)CNC(=O)C(CO)NC(=O)C(C(O)C8CNC(=N)N8C8OC(CO)C(O)C(O)C8O)NC(=O)C(C(O)C8CNC(=N)N8)NC7=O)cc6)C(O)C5O)C(O)C(O)C4O3)cc2)cc1 (stereo not drawn) [Example 174, Cyclo[glycyl-β-methylphenylalanyl-O-[4-O-[4,6-O-[4-(4-methylphenoxy)benzylidene]hexopyranosyl]hexopyranosyl]tyrosyl-3-(2-iminoimidazolidin-4-yl)seryl-3-(3-hexopyranosyl-2-iminoimidazolidin-4-yl)serylseryl]]
MIC Enterococcus faecalis (ATCC 29212) (Enterococcus sp.; inoculum 5×10^5 CFU/mL): 2 µg/mL (≈ 1.34 µM) | MIC Enterococcus faecalis (GC 2242) (Enterococcus sp.; inoculum 5×10^5 CFU/mL): 2 µg/mL (≈ 1.34 µM) | MIC Enterococcus faecium (GC 2243) (Enterococcus sp.; inoculum 5×10^5 CFU/mL): 1 µg/mL (≈ 0.671 µM) | MIC Enterococcus faecalis (GC 2691) (Enterococcus sp.; inoculum 5×10^5 CFU/mL): 2 µg/mL (≈ 1.34 µM) | MIC Enterococcus faecalis (GC 3059) (Enterococcus sp.; inoculum 5×10^5 CFU/mL): 2 µg/mL (≈ 1.34 µM) | MIC Enterococcus faecalis (GC 4552) (Enterococcus sp.; inoculum 5×10^5 CFU/mL): 1 µg/mL (≈ 0.671 µM) | MIC Enterococcus faecalis (GC 4553) (Enterococcus sp.; inoculum 5×10^5 CFU/mL): 1 µg/mL (≈ 0.671 µM) | MIC Enterococcus faecalis (GC 4554) (Enterococcus sp.; inoculum 5×10^5 CFU/mL): 1 µg/mL (≈ 0.671 µM) | MIC Enterococcus faecium (GC 4556) (Enterococcus sp.; inoculum 5×10^5 CFU/mL): 1 µg/mL (≈ 0.671 µM) | MIC Enterococcus faecium (GC 4557) (Enterococcus sp.; inoculum 5×10^5 CFU/mL): 2 µg/mL (≈ 1.34 µM) | MIC Enterococcus avium (GC 4558) (Enterococcus sp.; inoculum 5×10^5 CFU/mL): 2 µg/mL (≈ 1.34 µM) | MIC Enterococcus faecalis (GC 6189) (Enterococcus sp.; inoculum 5×10^5 CFU/mL): 2 µg/mL (≈ 1.34 µM) | MIC Enterococcus faecalis (ATCC 29212) (Enterococcus sp.): 2 µg/mL (≈ 1.34 µM) | MIC Enterococcus faecalis (GC 2242) (Enterococcus sp.): 2 µg/mL (≈ 1.34 µM) | MIC Enterococcus faecium (GC 2243) (Enterococcus sp.): 1 µg/mL (≈ 0.671 µM) | MIC Enterococcus faecalis (GC 2691) (Enterococcus sp.): 2 µg/mL (≈ 1.34 µM) | MIC Enterococcus faecalis (GC 3059) (Enterococcus sp.): 2 µg/mL (≈ 1.34 µM) | MIC Enterococcus faecalis (GC 4552) (Enterococcus sp.): 1 µg/mL (≈ 0.671 µM) | MIC Enterococcus faecalis (GC 4553) (Enterococcus sp.): 1 µg/mL (≈ 0.671 µM) | MIC Enterococcus faecalis (GC 4554) (Enterococcus sp.): 1 µg/mL (≈ 0.671 µM) | MIC Enterococcus faecium (GC 4556) (Enterococcus sp.): 1 µg/mL (≈ 0.671 µM) | MIC Enterococcus faecium (GC 4557) (Enterococcus sp.): 2 µg/mL (≈ 1.34 µM) | MIC Enterococcus avium (GC 4558) (Enterococcus sp.): 2 µg/mL (≈ 1.34 µM) | MIC Enterococcus faecalis (GC 6189) (Enterococcus sp.): 2 µg/mL (≈ 1.34 µM) | MIC Escherichia coli (ATCC 25922) (Escherichia coli; strain ATCC 25922, 18 hours at 35° C.): >64 µg/mL | MIC Escherichia coli (GC 4559) (Escherichia coli; strain GC 4559, 18 hours at 35° C.): >64 µg/mL | MIC Escherichia coli (GC 4560) (Escherichia coli; strain GC 4560, 18 hours at 35° C.): 4 µg/mL (≈ 2.69 µM) | MIC Staphylococcus aureus (GC 1131) (Staphylococcus sp.; inoculum 5×10^5 CFU/mL): 1 µg/mL (≈ 0.671 µM) | MIC Staphylococcus aureus (ATCC 29213) (Staphylococcus sp.; strain ATCC 29213): 2 µg/mL (≈ 1.34 µM) | MIC Staphylococcus aureus (GC 1131) (Staphylococcus sp.): 1 µg/mL (≈ 0.671 µM) | MIC Staphylococcus aureus (GC 3051) (Staphylococcus sp.; strain GC 3051): 2 µg/mL (≈ 1.34 µM) | MIC Staphylococcus aureus (GC 3053) (Staphylococcus sp.; strain GC 3053): 2 µg/mL (≈ 1.34 µM) | MIC Staphylococcus aureus (GC 4541) (Staphylococcus sp.; strain GC 4541): 2 µg/mL (≈ 1.34 µM) | MIC Staphylococcus aureus (GC 4542) (Staphylococcus sp.; strain GC 4542): 2 µg/mL (≈ 1.34 µM) | MIC Staphylococcus aureus (GC 4544) (Staphylococcus sp.; strain GC 4544): 1 µg/mL (≈ 0.671 µM) | MIC Staphylococcus aureus (GC 4545) (Staphylococcus sp.; strain GC 4545): 1 µg/mL (≈ 0.671 µM) | MIC Staphylococcus aureus-SMITH (GC 4543) (Staphylococcus sp.; strain GC 4543): 1 µg/mL (≈ 0.671 µM) | MIC Staphylococcus haemolyticus (GC 4546) (Staphylococcus sp.; strain GC 4546): 2 µg/mL (≈ 1.34 µM) | MIC Coagulase Negative Staphylococcus (GC 4547) (Staphylococcus sp.; strain GC 4547): 2 µg/mL (≈ 1.34 µM) | MIC Coagulase Negative Staphylococcus (GC 4548) (Staphylococcus sp.; strain GC 4548): 0.5 µg/mL (≈ 0.336 µM) | MIC Coagulase Negative Staphylococcus (GC 4549) (Staphylococcus sp.; strain GC 4549): 1 µg/mL (≈ 0.671 µM) | MIC Coagulase Negative Staphylococcus (GC 4551) (Staphylococcus sp.; strain GC 4551): 1 µg/mL (≈ 0.671 µM) | MIC Coagulase Negative Staphylococcus (GC 6257) (Staphylococcus sp.; strain GC 6257): 0.5 µg/mL (≈ 0.336 µM) | MIC Streptococcus pneumoniae (ATCC 6301) (Streptococcus sp.; inoculum 5×10^5 CFU/mL): <0.06 µg/mL | MIC Streptococcus pneumoniae (GC 1894) (Streptococcus sp.; inoculum 5×10^5 CFU/mL): <0.06 µg/mL | MIC Streptococcus pyogenes (GC 4563) (Streptococcus sp.; inoculum 5×10^5 CFU/mL): <0.06 µg/mL | MIC Streptococcus agalactiae (GC 4564) (Streptococcus sp.; inoculum 5×10^5 CFU/mL): <0.06 µg/mL | MIC Streptococcus pneumoniae (GC 4565) (Streptococcus sp.; inoculum 5×10^5 CFU/mL): <0.06 µg/mL | MIC Streptococcus pneumoniae (ATCC 6301) (Streptococcus sp.): <0.06 µg/mL | MIC Streptococcus pneumoniae (GC 1894) (Streptococcus sp.): <0.06 µg/mL | MIC Streptococcus pyogenes (GC 4563) (Streptococcus sp.): <0.06 µg/mL | MIC Streptococcus agalactiae (GC 4564) (Streptococcus sp.): <0.06 µg/mL | MIC Streptococcus pneumoniae (GC 4565) (Streptococcus sp.): <0.06 µg/mL | median effective dose (ED50), Staphylococcus aureus-SMITH (GC 4543) [1]: 0.08 mg/kg
